The results in this text go back to US8895504B2, “Amylin derivatives” (priority 2008, dated 2014).

The target in series [1] is T1, Amylin 3(a) receptor (human calcitonin receptor (CTa) and RAMP-3) (Homo sapiens, UniProt O60896+P30988).
T1 construct: expressed in transfected cells; host or cells: BHK570 cells, stably transfected with a CRE-luciferase reporter
As to the kind of experiment: Luciferase assay (III), BHK Amylin 3(a)//CRE-luc cells. It counts as cell-based. The conditions noted are these: BHK cells with Amylin 3(a) receptor and CRE luciferase reporter, 4 hours incubation; read-out: Potency Luciferase. The procedure, abridged:
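Read-out is CRE-driven luciferase luminescence, taken 30 min after LucLite addition at room temperature. Compounds were incubated 4 h at 37° C in assay medium (10% FBS, 10 mM Hepes, pH 7,4). The cell line is BHK570 co-transfected with human calcitonin receptor CTa and RAMP-3, seeded overnight before use.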
(In general: In a reporter assay the amount or activity of a reporter protein is the signal.)

The test system of series [2] is food intake. Description: Pharmacological Assay (I) - efficacy testing on appetite, ad libitum fed rat model. It counts as in vivo, Sprague Dawley (SD) rats. As to conditions: 30 nmol/kg vs vehicle, ad libitum fed rats, n=5-7, 0-48 hours. From the text: Assays Pharmacological Assay (I)—Experimental Protocol for Efficacy Testing on Appetite with an Amylin Derivative, Using an Ad Libitum Fed Rat Model. Sprague Dawley (SD) rats from Taconic Europe, Denmark are used for the experiments. The rats have a body weight 200-250 g at the start of experiment. The rats arrive at least 10-14 days before start of experiment to allow acclimatization to experimental settings. During this period the animals are handled at least 2 times. After arrival rats are housed individually for one week in a reversed light/dark phase (meaning that lights are off during daytime and on during nighttime) for two weeks. Since rats are normally active and eat their major part of their daily food intake during the dark period, rats are dosed in the morning right before lights are turned off. This set-up results in the lowest data variation and highest test sensitivity. The experiment is conducted in the rats' home cages and rats have free access to food and water throughout the acclimatization period and the experiment period. Each dose of derivative is tested in a group of 5-8 rats. A vehicle group of 6-8 rats is included in each set of testing. Rats are dosed once according to body weight with a 0.01-3 mg/kg solution administered intraperitoneally (ip), orally (po) or subcutaneously (sc). The time of dosing is recorded for each group. After dosing, the rats are returned to their home cages, where they then have access to food and water. The food consumption is recorded individually continuously by on-line registration or manually every hour for 7 hours, and then after 24 h and sometimes 48 h. At the end of the experimental session, the animals are euthanized. The individual data are recorded in Microsoft excel sheets. Outliers are excluded after applying the Grubbs statistical evaluation test for outliers, and the result is presented graphically using the GraphPad Prism program.

Series [3] can be described thus: Assay (VI) PK - determination of T½ in rat. The conditions noted are these: sc, terminal plasma half-life, subcutaneous, approx 20 nmol/kg, male Sprague Dawley rats. The class given is in vivo. The method, then: Assay (VI) PK—Determination OF T½ in Rat
T½ is the terminal half-life=ln 2/λz of a compound in plasma. λz is the first order rate constant associated with the terminal (log-linear) portion of the plasma concentration-time curve and is estimated by linear regression of time vs. log concentration.
T½ values of the amylin analogues of the invention is determined by pharmacokinetic studies in Sprague Dawley male rats, from Taconic Europe and the principles of laboratory animal care are followed.
An acclimatization period of approximately 7 days was allowed before the animals entered the study. At start of the acclimatization period the rats were in the weight range of 300-400 g. The rats had permanent catheters inserted in a. carotis which were used for blood sampling.
The studies were conducted in an animal room which was illuminated to give a cycle of approx 12 hours light and 12 hours darkness. The animals were housed individually due to the catheters and had food and water ad lib. The animals were weighed on the days of dosing.
In the present studies the test substances were administered subcutaneously in approx 20 nmol/kg dose. The animals received a single subcutaneous injection to the neck using a 25 G needle with syringe. Each test substance was given to typically three but in some cases two or four animals.
A full plasma concentration-time profile, employing 8-10 sampling points, was obtained from each animal. In example blood samples were collected according to the following schedule:
After subcutaneous administration:
Predose (0), 0.5, 1, 1.5, 2, 4, 6, 12, 24, 48 and 72 hours after injection. At each sampling time, 0.08 to 0.10 ml of blood was drawn from each animal. The blood samples were taken via the catheter.
The blood samples were collected into EDTA test tubes. Blood samples were kept on ice for max 20 min. before centrifugation. Plasma was separated using centrifugation (i.e. at 4° C., 10 min., 1500 G) and was immediately transferred to Micronic tubes or PCR plates. Approximately 40 μl plasma was transferred and was stored at −20° C. until assayed. The plasma samples were assayed for the content of amylin using an ELISA assay.
The plasma concentration-time profiles were analysed by a non-compartmental pharmacokinetic analysis (NCA) using WinNonlin Professional 5.0 (Pharsight Inc., Mountain View, Calif., USA). NCA was performed using the individual plasma concentration-time profiles from each animal. T½ is the terminal half-life=ln 2/λz and was determined from λz, the first order rate constant associated with the terminal (log-linear) portion of the curve, estimated by linear regression of time vs. log concentration.
ELISA Plasma Assay for Amylin Quantification
The human amylin ELISA is a monoclonal antibody-based sandwich immunoassay for determining amylin levels in human plasma. The capture antibody recognizes human amylin, amylin acid (deamidated amylin), a 1-20 fragment of amylin, but not reduced amylin. The detection antibody binds to reduced or unreduced human amylin but not amylin acid and is complexed with streptavidin-alkaline phosphatase. The substrate, 4-methylumbelliferyl phosphate, is applied to the completed sandwich and the fluorescent signal, monitored at 355 nm/460 nm, is proportional to the amount of amylin present in the sample.

Structures are written as SMILES. *1 amine or outer side, *2 acyl side, *3 side chain or, on linkers, in order; H or OH if unused. Where a SMILES comes first, the peptide text is derived from it. Bridges are numbered along the chain shown (N, C = ends). The star is where a group is joined. C20 diacid = O=C(O)CCCCCCCCCCCCCCCCCCC(=O)*; γGlu = O=C(O)[C@H](CCC(=O)[*:2])N[*:1]

T1 sequence (O60896 24-148): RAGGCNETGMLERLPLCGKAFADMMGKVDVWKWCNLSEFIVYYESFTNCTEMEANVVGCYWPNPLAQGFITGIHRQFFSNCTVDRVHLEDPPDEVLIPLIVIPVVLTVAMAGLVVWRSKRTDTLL
T1 sequence (P30988 25-474): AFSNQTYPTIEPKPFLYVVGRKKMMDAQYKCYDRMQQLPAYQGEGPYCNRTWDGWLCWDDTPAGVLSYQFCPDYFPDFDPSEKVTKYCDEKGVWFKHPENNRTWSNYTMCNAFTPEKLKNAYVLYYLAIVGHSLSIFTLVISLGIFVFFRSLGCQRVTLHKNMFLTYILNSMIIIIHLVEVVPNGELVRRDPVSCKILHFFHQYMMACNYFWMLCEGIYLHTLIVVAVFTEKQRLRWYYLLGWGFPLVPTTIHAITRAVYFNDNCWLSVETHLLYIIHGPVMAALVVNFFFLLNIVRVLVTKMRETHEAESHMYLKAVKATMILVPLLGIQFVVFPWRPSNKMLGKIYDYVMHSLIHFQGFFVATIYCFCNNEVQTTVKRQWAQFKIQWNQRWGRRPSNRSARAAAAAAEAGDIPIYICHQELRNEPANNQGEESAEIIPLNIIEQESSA

Usually half-life stands for how long it takes for the measured level to halve. A high value points to slow decline. As for `CC[C@H](C)[C@H](NC(=O)[C@@H]1CCCN1C(=O)CNC(=O)[C@H](Cc1ccccc1)NC(=O)[C@H](CC(N)=O)NC(=O)[C@H](CC(N)=O)NC(=O)[C@H](CO)NC(=O)[C@H](CO)NC(=O)[C@H](Cc1c[nH]cn1)NC(=O)[C@H](Cc1c[nH]cn1)NC(=O)[C@H](CC(C)C)NC(=O)[C@H](Cc1ccccc1)NC(=O)[C@H](CC(N)=O)NC(=O)[C@H](C)NC(=O)[C@H](CC(C)C)NC(=O)[C@H](CCCNC(=N)N)NC(=O)[C@H](CCC(N)=O)NC(=O)[C@@H](NC(=O)[C@H](C)NC(=O)[C@@H]1CSSC[C@H](NC(=O)[C@H](Cc2c[nH]cn2)NC(=O)[C@H](Cc2c[nH]cn2)NC(=O)[C@H](Cc2c[nH]cn2)NC(=O)CC[C@H](NC(=O)CCCCCCCCCCCCCCCCCCC(=O)O)C(=O)O)C(=O)N[C@@H](CC(N)=O)C(=O)N[C@@H]([C@@H](C)O)C(=O)N[C@@H](C)C(=O)N[C@@H]([C@@H](C)O)C(=O)N1)[C@@H](C)O)C(=O)N[C@@H](CC(C)C)C(=O)N1CCC[C@H]1C(=O)N1CCC[C@H]1C(=O)N[C@H](C(=O)N[C@@H](CC(N)=O)C(=O)N[C@H](C(=O)NCC(=O)N[C@@H](CO)C(=O)N[C@@H](CC(N)=O)C(=O)N[C@H](C(=O)N[C@@H](Cc1ccc(O)cc1)C(N)=O)[C@@H](C)O)C(C)C)[C@@H](C)O` [Example 39, N-alpha-[(S)-4-Carboxy-4-(19-carboxynonadecanoylamino)butyryl]-His-His-[His1,His17]-pramlintide] ({C20 diacid-γGlu}-HHHCNTATCATQRLANFLHHSSNNFGPILPPTNVGSNTY-NH2; disulfide 4-9), the EC50 in series [1] was 0.06 nM. For the same compound, the “food intake over a period of 48 hours” value in series [2] was “effectively reducing food intake”. In series [3], this compound had a half-life of 14 h.
